The source of these data is the NIST ThermoML archive (doi:10.1021/je3011634).

± gives the expanded uncertainty stated by the source.

For this data set the following is noted: 101.33 kPa, Liquid; for viscosity: Capillary tube (Ostwald / Ubbelohde) method; for mass density: Vibrating tube method.

Turning to `CC(C)CO` [2-methyl-1-propanol], the viscosity is 4.087 ± 0.1 mPa·s (293.15 K); 2.877 ± 0.1 mPa·s (303.15 K); 2.091 ± 0.1 mPa·s (313.15 K); 1.576 ± 0.1 mPa·s (323.15 K); 1.125 ± 0.1 mPa·s (333.15 K). For the same compound, the mass density came out at 801.82 ± 0.24 kg/m3 (293.15 K); 794.06 ± 0.24 kg/m3 (303.15 K); 786.12 ± 0.24 kg/m3 (313.15 K); 777.94 ± 0.24 kg/m3 (323.15 K); 769.46 ± 0.24 kg/m3 (333.15 K).
For the compound `CCCO` [propan-1-ol], the viscosity was 2.204 ± 0.1 mPa·s (293.15 K), 1.513 ± 0.1 mPa·s (303.15 K), 1.018 ± 0.1 mPa·s (313.15 K) and 0.79 ± 0.1 mPa·s (323.15 K). For the same compound, the mass density runs as follows: (293.15 K) 803.57 ± 0.15 kg/m3; (303.15 K) 795.53 ± 0.15 kg/m3; (313.15 K) 787.35 ± 0.15 kg/m3; (323.15 K) 778.98 ± 0.15 kg/m3; (333.15 K) 770.38 ± 0.16 kg/m3.
In the case of `CC(C)O` [propan-2-ol], the viscosity turned out to be 2.362 ± 0.1 mPa·s (293.15 K); 1.762 ± 0.1 mPa·s (303.15 K); 1.2 ± 0.1 mPa·s (313.15 K); 0.938 ± 0.1 mPa·s (323.15 K); 0.604 ± 0.1 mPa·s (333.15 K). Further, the mass density (293.15 K) amounted to 785.35 ± 0.17 kg/m3; the mass density (303.15 K) was 776.86 ± 0.17 kg/m3; the mass density (313.15 K) is 768.07 ± 0.17 kg/m3; the mass density (323.15 K) is 758.89 ± 0.18 kg/m3; the mass density (333.15 K) is given as 749.25 ± 0.18 kg/m3.
As for `NCCCO` [3-amino-1-propanol], the viscosity was 40.46 ± 0.27 mPa·s (293.15 K); 23.98 ± 0.18 mPa·s (303.15 K); 15.31 ± 0.14 mPa·s (313.15 K); 10.22 ± 0.12 mPa·s (323.15 K); 6.962 ± 0.11 mPa·s (333.15 K). The mass density by setting is: (293.15 K) 987.65 ± 0.23 kg/m3; (303.15 K) 979.65 ± 0.23 kg/m3; (313.15 K) 971.61 ± 0.23 kg/m3; (323.15 K) 963.52 ± 0.23 kg/m3; (333.15 K) 955.38 ± 0.23 kg/m3.
